Assay results taken from US5516887A, “Luteinizing hormone releasing hormone antagonist peptides” (Deghenghi; Romano, priority 1994, dated 1996).
Non-standard residues stand in square brackets, D forms with d. *: point of attachment. dPhe(4-Cl) = N[C@H](Cc1ccc(Cl)cc1)C(=O)O; d2Nal = N[C@H](Cc1ccc2ccccc2c1)C(=O)O; d3Pal = N[C@H](Cc1cccnc1)C(=O)O; Carbamoyl = NC(=O)*; iPr = CC(C)*

Tests used:
plasma testosterone = test: Suppression of plasma testosterone in rats after i.m. injection; assay type: in vivo; settings: 300 μg/kg i.m.
Description: The effect of an LHRH antagonist peptide of Example 1 of the present invention was compared to the effect of "Antide", cf. A. Ljungqvist et al., Biochem. Biophys. Res. Comm., 148, 849-858 (1987)., an LHRH antagonist of the prior art. Both LHRH antagonists were intermuscularly injected into 6 rats at a dosage of 300 mcg/kg.

rats = test: Test for anaphylactoid properties in rats; assay type: in vivo; settings: six rats, injected with 5 mg/kg, observed over a 24 hour period
Experimental: Six rats were utilized to test the LHRH antagonist peptide of Example 1 of the present invention for anaphylactoid properties. Each of the six rats was injected with 5 mg/kg of the test peptide.

[1] = assay type: physicochemical
Description: An aqueous solution of the peptide of Example 1 was mixed with an aqueous solution of sodium pamoate.

Substance | plasma testosterone, 0 hr (plasma testosterone) | effectiveness relative to Antide at 24 hour suppression of plasma testosterone (plasma testosterone; 24 hr) | plasma testosterone, 24 hr (plasma testosterone; 24 hr) | effectiveness relative to Antide at 48 hours, suppression of plasma testosterone (plasma testosterone; 48 hr) | plasma testosterone, 48 hr (plasma testosterone; 48 hr) | mortality or other signs of anaphylactoid reactions (rats) | solubility in water [1]
Example 1: LHRH antagonist peptide SEQ ID NO.: 1: N-acetyl-D-3-(2-naphthyl)-Ala1, D-3-(4-chlorophenyl)-alanine2, D-3(3-pyridyl)-Ala3, D-6-carbamoyl lysine6, Nε-isopropyl-Lys8, D-Ala-NH2 at 10 (Ac-[d2Nal][dPhe(4-Cl)][d3Pal]SY[dK](Carbamoyl)LK(iPr)P[dA]-NH2) | 5.46 ± 3.32 | more than about ten times as effective as Antide | 0.067 ± 0.030 | more than twice as effective as Antide | 0.84 ± 0.28 | No mortality or other signs of anaphylactoid reactions were observed | freely soluble in water
Antide [reference compound] | 3.35 ± 2.51 | – | 0.78 ± 0.37 | – | 1.96 ± 0.95 | – | –
Example 2: LHRH antagonist peptide SEQ ID NO.: 2: as SEQ ID NO.: 1 at positions 1, 2, 3, 6, 8; position 9 is Pro-NHCH2 CH3 (Ac-[d2Nal][dPhe(4-Cl)][d3Pal]SY[dK](Carbamoyl)LK(iPr)P-NHEt; SMILES CCNC(=O)[C@@H]1CCCN1C(=O)[C@H](CCCCNC(C)C)NC(=O)[C@H](CC(C)C)NC(=O)[C@@H](CCCCNC(N)=O)NC(=O)[C@H](Cc1ccc(O)cc1)NC(=O)[C@H](CO)NC(=O)[C@@H](Cc1cccnc1)NC(=O)[C@@H](Cc1ccc(Cl)cc1)NC(=O)[C@@H](Cc1ccc2ccccc2c1)NC(C)=O) | – | – | – | – | – | – | water soluble
